IC50 and inhibition data for eleven molecules are collected here from patent EP0443573A2, “HIV protease inhibitors containing derived amino acids” (BIO-MEGA/BOEHRINGER INGELHEIM RESEARCH INC., priority 1990, dated 1991).

In one assay the target is T1, HIV protease (Human immunodeficiency virus type 1 group M subtype B, UniProt P04585).
T1 construct: HIV protease was expressed in E. coli; made in house; host or cells: E. coli
The experiment in a line: Recombinant HIV Protease HPLC Assay. It is filed as biochemical. The note with it: recombinant HIV protease expressed in E. coli; substrate VSFNFPQITL-NH₂; pH 5.5; 37° for 30 min; HPLC readout. From the text: The procedure is based on the capacity of the test compound to inhibit enzymatic cleavage by HIV protease of a decapeptide (the substrate) having an amino acid sequence which includes a known HIV protease cleavage site of a HIV polyprotein; see H.G. Krausslich et al., Proc. Natl. Acad. Sci. USA, 86, 807 (1989). Details of this assay together with the results obtained for exemplified compounds of formula 1 are described in the examples hereinafter.
Recombinant HIV Protease HPLC Assay: Enzyme: HIV protease was expressed in E. coli [construct pBRT1 prt⁺, see W.G. Farmerie et al., Science, 236,305 (1987)], according to the following protocol: Unless stated otherwise, all solutions are aqueous solutions.
E. coli cells containing the pBRT1 prt⁺ plasmid were used to inoculate a seed culture media composed of Luria-Bertani Broth containing 100µg/mL of ampicillin. Flasks were incubated at 37° under agitation for 17 h. Production flasks containing sterile M9 broth, supplemented with 100µg/ml of ampicillin, were inoculated at a level of 1% (v/v) using the seed culture described above. Total volume in each production flask was 500 mL in a 2 L Erlenmeyer flask. Flasks were incubated at 37° under agitation until a cell concentration corresponding to an optical density (λ = […]) of 0.6 was reached (no dilution). This time span was routinely 3-4 h. Flasks were then supplemented with 5mM isopropylthiogalactoside (IPTG, Research Organics, Cleveland, Ohio, USA) and incubation was continued until the cell concentration reached an optical density of 0.2 at 16-fold dilution. Flasks were then supplemented with 1mM phenylmethylsulfonyl fluoride (PMSF) and rapidly chilled to 4°. The bacterial cells were recovered by centrifugation at 4°. The wet pellet was stored at -70°.
All steps below were performed at 4° unless otherwise indicated. Thawed cells were mixed with buffer A [50 mM […] HCl(Tris-HCl, pH 7.4); 0.6 mM ethylenediaminetetraacetic acid (EDTA); 0.375 M NaCl, 0.2% Nonidet P-40 ^R (BDH Chemicals Ltd., Poole, UK); 1mM PMSF], at a ratio of one part cells to nine parts buffer A. Diatomaceous earth (Celite 545 ^R , John Manville, Lompoc, CA, USA) was added at a ratio of two parts to one part of wet cell weight. The resulting slurry was homogenized at high speed (ca. 20,000 rpm) on a Waring ^R industrial blender for 8 x 15 sec. pulses. Cell debris/Celite ^R was collected by centrifugation and the resulting pellet was extracted with 4.5 parts of buffer A to one part wet solids using the homogenization procedure described above. Supernatants from both homogenization steps were combined and soluble protein was precipitated by the addition of solid (NH₄)₂SO₄ to yield a final concentration of 75% saturation. This mixture was agitated for 60 min and the precipitate was recovered by centrifugation. The resulting pellet was suspended in buffer B [50mM Tris-HCl, pH 8; 30 mM NaCl; 1 mM DL-dithiothreitol(DTT); 1 mM EDTA; 1 mM PMSF; 10% glycerol], and dialyzed for 18h against the same buffer.
An aliquot of the dialyzed extract containing 150 mg of the protein was loaded onto a Sephadex A25 ^R anion exchange column. (Pharmacia, Uppsala, Sweden) with bed dimensions of 70 cm length and 2.5 cm diameter. The sample was eluted isocratically with buffer B at a linear flow rate of 10 cm/h. Fractions containing HIV protease activity (see below for assay description) were combined, and soluble protein was precipitated by the addition of saturated aqueous (NH₄)₂SO₄ to yield a total (NH₄)₂SO₄ concentration of 85% saturation. Precipitated protein was removed by centrifugation and the resulting pellet was dissolved in buffer C[50 mM 2-(4-morpholino)ethanesulfonic acid (MES), pH 5.5; 150 mM NaCl; 1 mM DTT; 1 mM EDTA; 10% glycerol]. This preparation was dialyzed for 18h against buffer C, and then frozen at -70°. All crude extracts were purified by chromatography in aliquots containing 150 mg of protein in the same manner as described above. […]
As to `CCC(=O)NC(C(=O)NC(CC1CCCCC1)C(O)CC(=O)NC(CCC(=O)O)C(=O)NCCc1ccccc1)C(C)(C)C` (stereo not shown) [CH3CH2C(O)-Tbg-ACHPA-Glu-NHCH2CH2Ph, CH₃CH₂C(O)-Tbg-ACHPA-Glu-NHCH₂CH₂Ph], the IC50 stood at 15 nM.
The same measure, in the same setting: as for `CC(=O)NC(C(=O)NC(CC1CCCCC1)C(O)CC(=O)NC(CCC(=O)O)C(=O)NCCc1ccccc1)C(C)(C)C` (stereo not shown) [Ac-Tbg-ACHPA-Glu-NHCH2CH2Ph, Ac-Tbg-ACHPA-Glu-NHCH₂CH₂Ph], the figure is 12 nM; as for `CC(C)(C)C(NC(=O)C(O)CO)C(=O)NC(CC1CCCCC1)C(O)CC(=O)NC(CCC(=O)O)C(=O)NCCc1ccccc1` [(S)-HOCH₂CH(OH)C(O)-Tbg-ACHPA-Glu-NHCH₂CH₂Ph], 9.2 nM.
Turning to `CC(=O)NC(C(=O)NC(CNC(CC(C)C)C(=O)NC(CCC(=O)O)C(=O)NCCc1ccccc1)Cc1ccccc1)C(C)C` (stereo not drawn) [Ac-Val-Pheψ[CH2NH]Leu-Glu-NHCH2CH2Ph, Ac-Val-PheΨ[CH₂NH]Leu-Glu-NHCH₂CH₂Ph], the half-inhibitory concentration (IC50) was 16 nM.
Still for that read-out and setting: the value for `COC(=O)CCC(NC(=O)CC(O)C(CC1CCCCC1)NC(=O)C(NC(=O)C(O)CO)C(C)(C)C)C(=O)NCCc1ccccc1` [(S)-HOCH₂CH(OH)C(O)-Tbg-ACHPA-Glu(OMe)NHCH₂CH₂Ph] was 200 nM.
Still for that read-out and setting: as for `CC(C)(C)CC(=O)NC(C(=O)NC(CC1CCCCC1)C(O)CC(=O)NC(CCC(=O)O)C(=O)NCCc1ccccc1)C(C)(C)C` (stereo not shown) [(CH3)3CCH2C(O)-Tbg-ACHPA-Glu-NHCH2CH2Ph, (CH₃)₃CCH₂C(O)-Tbg-ACHPA-Glu-NHCH₂CH₂Ph], the figure is 110 nM; as for `CCC(CC)C(=O)NC(C(=O)NC(CC1CCCCC1)C(O)CC(=O)NC(CC1CC1)C(=O)NCCCc1ccccc1)C(C)C` (stereo not shown) [(C2H5)2CHC(O)-Val-ACHPA-Cpa-NHCH2CH2CH2Ph], 135 nM.
`CC(=O)NC(C(=O)NC(CC1CCCCC1)C(O)CC(=O)NC(CC1CC1)C(=O)NCCc1ccccc1)C(C)(C)C` (stereo not shown) [Ac-Tbg-ACHPA-Cpa-NHCH2CH2Ph, Ac-Tbg-ACHPA-Cpa-NHCH₂CH₂Ph]: the half-inhibitory concentration (IC50) is 93 nM.
Still for that read-out and setting: the value for `COC(=O)CCC(NC(=O)CC(O)C(CC1CCCCC1)NC(=O)C(NC(C)=O)C(C)(C)C)C(=O)NCCc1ccccc1` (stereo not shown) [Ac-Tbg-ACHPA-Glu(OMe)-NHCH2CH2Ph, Ac-Tbg-ACHPA-Glu(OMe)-NHCH₂CH₂Ph] was 150 nM; that for `COC(=O)CCC(NC(=O)CC(O)C(CC1CCCCC1)NC(=O)C(NC(C)=O)C(C)C)C(=O)NCCc1ccccc1` (stereo not shown) [Ac-Val-ACHPA-Glu(OMe)-NHCH2CH2Ph, Ac-Val-ACHPA-Glu(OMe)NHCH₂CH₂Ph] was 480 nM.
The same measure, in the same setting: as for `CC(=O)NC(C(=O)NC(CC1CCCCC1)C(O)CC(=O)NC(CCC(=O)O)C(=O)NCCc1ccccc1)C(C)C` (stereo not shown) [Ac-Val-ACHPA-Glu-NHCH2CH2Ph, Ac-Val-ACHPA-Glu-NHCH₂CH₂Ph], the figure is 31 nM.

In a further assay the test system is HIV. The assay can be described thus: Inhibition of syncytia formation by HIV in HTLV-I transformed C8166 cells (adapted plaque assay). It is filed as cell-based, H9/HTLV-IIIB. The settings on record: Human immunodeficiency virus 1, IIIB, C8166, 72 h, read-out: inhibition of syncytia formation. From the text: Typical of such procedures are those described by S. Harada and N. Yamamoto, Jpn. J. Cancer Res. (Gann), 76, 432 (1985), and S. Harada et al., Science 229, 563 (1985). An assay based on the latter procedures is described in the examples hereinafter.
The following protocol, used for screening antiviral effects of the compounds of formula 1, is adapted from a plaque assay utilizing HTLV-I transformed cells which was developed by Harada et al., supra. HTLV-I transformed cells are used in these assays because of the rapidity with which HIV will replicate in these cells. • 1. The test compound is dissolved in dimethylsulfoxide to a concentration of 5 mg/mL. The resultant solution can be stored at 4° until used. • 2. The resultant solution is diluted in RPMI 1640 (Gibco Laboratories, St. Lawrence, MA, USA) to four times (4x) the final concentration which is to be tested. Once diluted in RPMI 1640, the solution is used in the cell culture assay within 4 h. • 3. The 4x solution (50µL) is added to triplicate wells of a 96 well flat bottomed microtiter plate. RPMI […] also is added to control wells. • 4. […] Infectious titer of virus stocks are as previously determined by end point dilution on C8166 cells. […] Plates are then removed and centers of syncytia are counted in each well by low power phase contrast light microscopy. […] Percent inhibition of syncytia formation is calculated by the formula: [formula]
As for `CCC(=O)NC(C(=O)NC(CC1CCCCC1)C(O)CC(=O)NC(CCC(=O)O)C(=O)NCCc1ccccc1)C(C)(C)C` (stereo not shown) [CH3CH2C(O)-Tbg-ACHPA-Glu-NHCH2CH2Ph, CH₃CH₂C(O)-Tbg-ACHPA-Glu-NHCH₂CH₂Ph], the inhibition at 20 µg/mL came out at 49%.
Take `COC(=O)CCC(NC(=O)CC(O)C(CC1CCCCC1)NC(=O)C(NC(=O)C(O)CO)C(C)(C)C)C(=O)NCCc1ccccc1` [(S)-HOCH₂CH(OH)C(O)-Tbg-ACHPA-Glu(OMe)NHCH₂CH₂Ph]: the inhibition at 20 µg/mL came to 100%.

In general, IC50 refers to the concentration that inhibits the measured activity by half. For orientation: inhibition means the percentage by which the read-out fell short of the control.
